In ChEMBL document CHEMBL5634130, “Exploring the structural-activity relationship of hexahydropyrazino[1,2-d]pyrido[3,2-b][1,4]oxazine derivatives as potent and orally-bioavailable PARP7 inhibitors” (Eur J Med Chem, 2023):
Converted amounts (≈) assume the structure as drawn.

Key:
[1] = Thermodynamic solubility of compound at pH 7.4; format: physicochemical; conditions: buffer, read-out: Therm_solubility
NCI-H1373 = experiment: Antitumor activity against human NCI-H1373 cells xenografted in […] SCID mouse model assessed as tumor growth inhibition at 30 mg/kg, po administered everyday measured after 21 days relative to control; format: functional; conditions: NCI-H1373, 504 h, time 21 day, read-out: TGI
[2] = Apparent permeability across apical to basolateral side in MDCKII-MDR1 cells incubated for 2 hrs by LC-MS analysis; format: ADME, cell-based, Canis lupus familiaris; conditions: dog, MDCK-MDR1
Cytochrome P450 2D6 = Cytochrome P450 2D6 (Homo sapiens, UniProt P10635); experiment: Inhibition of CYP2D6 in human liver microsomes using dextromethorphan as substrate preincubated for 10 mins followed by substrate addition measured for 30 mins by LC-MS analysis; format: ADME, Microsome
[3] = Plasma protein binding in mouse at 2 uM incubated for 1 hr by LC/MS analysis; format: ADME, cell-free; conditions: read-out: PPB (converted)
[4] = AUC in fasted Beagle dog at 2 mg/kg, iv measured for 24 hrs by LC-MS analysis; format: ADME, organism-based, Canis lupus familiaris; conditions: in vivo, iv, 2 mg/kg, 24 h
[5] = Tmax in fasted Beagle dog at 10 mg/kg, po measured for 24 hrs by LC-MS analysis; format: ADME, organism-based, Canis lupus familiaris; conditions: in vivo
[6] = AUC in fasted ICR mouse at 2 mg/kg, iv measured for 24 hrs by LC-MS analysis; format: ADME, organism-based; conditions: in vivo
[7] = Apparent permeability across basolateral to apical side in MDCKII-MDR1 cells incubated for 2 hrs by LC-MS analysis; format: ADME, cell-based, Canis lupus familiaris; conditions: dog, MDCK-MDR1
Cytochrome P450 2C19 = Cytochrome P450 2C19 (Homo sapiens, UniProt P33261); experiment: Inhibition of CYP2C19 in human liver microsomes using mephenytoin as substrate preincubated for 10 mins followed by substrate addition measured for 30 mins by LC-MS analysis; format: ADME, Microsome
[8] = AUC in fasted Beagle dog at 10 mg/kg, po measured for 24 hrs by LC-MS analysis; format: ADME, organism-based, Canis lupus familiaris; conditions: in vivo
[9] = Half life in fasted ICR mouse at 2 mg/kg, iv measured for 24 hrs by LC-MS analysis; format: ADME, organism-based; conditions: in vivo
[10] = Kinetic solubility of compound at pH 6.5; format: physicochemical; conditions: buffer, read-out: Kinetic_solubility
[11] = AUC in fasted ICR mouse at 10 mg/kg, po measured for 24 hrs by LC-MS analysis; format: ADME, organism-based; conditions: in vivo
[12] = Clearance in fasted ICR mouse at 2 mg/kg, iv measured for 24 hrs by LC-MS analysis; format: ADME, organism-based; conditions: in vivo
[13] = Oral bioavailability in fasted ICR mouse at 10 mg/kg measured for 24 hrs by LC-MS analysis; format: ADME, organism-based; conditions: in vivo
[14] = Thermodynamic solubility of compound at pH 6.5; format: physicochemical; conditions: buffer, read-out: Therm_solubility
[15] = Toxicity in […] SCID mouse model xenografted with human NCI-H1373 cells assessed as body weight loss at 30 mg/kg, po measured for 21 days; format: organism-based; conditions: in vivo, 504 h, time 21 day
[16] = Kinetic solubility of compound at pH 2; format: physicochemical; conditions: buffer, read-out: Kinetic_solubility
[17] = Metabolic stability in human liver microsomes assessed as intrinsic clearance preincubated for 5 mins followed by NADPH addition measured for 1 hr by LC-MS analysis; format: ADME, Microsome; conditions: time 65 min, read-out: CLH
[18] = Thermodynamic solubility of compound at pH 2; format: physicochemical; conditions: buffer, read-out: Therm_solubility
Cytochrome P450 3A4 = Cytochrome P450 3A4 (Homo sapiens, UniProt P08684); experiment: Inhibition of CYP3A4 in human liver microsomes using midazolam as substrate preincubated for 10 mins followed by substrate addition measured for 30 mins by LC-MS analysis; format: ADME, Microsome
[19] = Metabolic stability in rat liver microsomes assessed as intrinsic clearance preincubated for 5 mins followed by NADPH addition measured for 1 hr by LC-MS analysis; format: ADME, Microsome; conditions: time 65 min, read-out: CLH
Cytochrome P450 1A2 = target: T1, Cytochrome P450 1A2 (Homo sapiens, UniProt P05177); experiment: Inhibition of CYP1A2 in human liver microsomes using phenacetin as substrate preincubated for 10 mins followed by substrate addition measured for 30 mins by LC-MS analysis; format: ADME, Microsome
T1 sequence (P05177 whole entry): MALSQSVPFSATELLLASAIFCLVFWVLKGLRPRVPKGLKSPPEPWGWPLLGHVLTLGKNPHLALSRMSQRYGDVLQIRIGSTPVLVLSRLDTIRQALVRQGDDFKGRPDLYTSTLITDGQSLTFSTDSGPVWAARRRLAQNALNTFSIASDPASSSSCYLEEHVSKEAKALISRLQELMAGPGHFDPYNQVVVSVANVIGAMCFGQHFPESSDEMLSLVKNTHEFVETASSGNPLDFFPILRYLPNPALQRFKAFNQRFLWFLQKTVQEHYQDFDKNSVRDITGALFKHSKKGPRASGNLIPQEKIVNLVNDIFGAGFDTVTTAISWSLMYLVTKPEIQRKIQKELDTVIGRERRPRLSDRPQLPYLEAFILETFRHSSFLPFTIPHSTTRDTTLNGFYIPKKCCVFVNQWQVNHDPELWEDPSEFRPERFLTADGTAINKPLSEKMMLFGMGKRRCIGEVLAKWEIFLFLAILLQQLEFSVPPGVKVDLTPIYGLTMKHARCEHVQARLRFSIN

[20] = Cmax in fasted Beagle dog at 10 mg/kg, po measured for 24 hrs by LC-MS analysis; format: ADME, organism-based, Canis lupus familiaris; conditions: in vivo
[21] = Plasma protein binding in human at 2 uM incubated for 1 hr by LC/MS analysis; format: ADME, cell-free; conditions: read-out: PPB (converted)
[22] = Oral bioavailability in fasted Beagle dog at 10 mg/kg measured for 24 hrs by LC-MS analysis; format: ADME, organism-based, Canis lupus familiaris; conditions: in vivo
[23] = Metabolic stability in dog liver microsomes assessed as intrinsic clearance preincubated for 5 mins followed by NADPH addition measured for 1 hr by LC-MS analysis; format: ADME, Canis lupus familiaris, Microsome; conditions: time 65 min, read-out: CLH
[24] = Plasma protein binding in dog at 2 uM incubated for 1 hr by LC/MS analysis; format: ADME, cell-free, Canis lupus familiaris; conditions: read-out: PPB (converted)
[25] = Kinetic solubility of compound at pH 7.4; format: physicochemical; conditions: buffer, read-out: Kinetic_solubility
[26] = Half life in fasted Beagle dog at 2 mg/kg, iv measured for 24 hrs by LC-MS analysis; format: ADME, organism-based, Canis lupus familiaris; conditions: in vivo
[27] = Half life in fasted ICR mouse at 10 mg/kg, po measured for 24 hrs by LC-MS analysis; format: ADME, organism-based; conditions: in vivo
[28] = Volume of distribution at steady state in fasted Beagle dog at 2 mg/kg, iv measured for 24 hrs by LC-MS analysis; format: ADME, organism-based, Canis lupus familiaris; conditions: in vivo, read-out: Vdss
[29] = Metabolic stability in monkey liver microsomes assessed as intrinsic clearance preincubated for 5 mins followed by NADPH addition measured for 1 hr by LC-MS analysis; format: ADME, Macaca mulatta, Microsome; conditions: rhesus monkey, time 65 min, read-out: CLH
[30] = Passive permeability in MDCKII-MDR1 cells incubated for 2 hrs by LC-MS analysis; format: ADME, cell-based, Canis lupus familiaris; conditions: dog, MDCK-MDR1, read-out: permeability
[31] = Half life in fasted Beagle dog at 10 mg/kg, po measured for 24 hrs by LC-MS analysis; format: ADME, organism-based, Canis lupus familiaris; conditions: in vivo
Cytochrome P450 2C9 = Cytochrome P450 2C9 (Homo sapiens, UniProt P11712); experiment: Inhibition of CYP2C9 in human liver microsomes using diclofenac as substrate preincubated for 10 mins followed by substrate addition measured for 30 mins by LC-MS analysis; format: ADME, Microsome
[32] = Metabolic stability in mouse liver microsomes assessed as intrinsic clearance preincubated for 5 mins followed by NADPH addition measured for 1 hr by LC-MS analysis; format: ADME, Microsome; conditions: time 65 min, read-out: CLH
[33] = Toxicity in […] SCID mouse model xenografted with human NCI-H1373 cells assessed as animal death at 30 mg/kg, po measured for 21 days; format: organism-based; conditions: in vivo, 504 h, time 21 day
[34] = Plasma protein binding in monkey at 2 uM incubated for 1 hr by LC/MS analysis; format: ADME, cell-free, Macaca mulatta; conditions: rhesus monkey, read-out: PPB (converted)
[35] = Volume of distribution at steady state in fasted ICR mouse at 2 mg/kg, iv measured for 24 hrs by LC-MS analysis; format: ADME, organism-based; conditions: in vivo, read-out: Vdss
[36] = Cmax in fasted ICR mouse at 10 mg/kg, po measured for 24 hrs by LC-MS analysis; format: ADME, organism-based; conditions: in vivo
[37] = Tmax in fasted ICR mouse at 10 mg/kg, po measured for 24 hrs by LC-MS analysis; format: ADME, organism-based; conditions: in vivo
[38] = Plasma protein binding in rat at 2 uM incubated for 1 hr by LC/MS analysis; format: ADME, cell-free; conditions: read-out: PPB (converted)

Sequence of Cytochrome P450 3A4 (P08684 whole entry): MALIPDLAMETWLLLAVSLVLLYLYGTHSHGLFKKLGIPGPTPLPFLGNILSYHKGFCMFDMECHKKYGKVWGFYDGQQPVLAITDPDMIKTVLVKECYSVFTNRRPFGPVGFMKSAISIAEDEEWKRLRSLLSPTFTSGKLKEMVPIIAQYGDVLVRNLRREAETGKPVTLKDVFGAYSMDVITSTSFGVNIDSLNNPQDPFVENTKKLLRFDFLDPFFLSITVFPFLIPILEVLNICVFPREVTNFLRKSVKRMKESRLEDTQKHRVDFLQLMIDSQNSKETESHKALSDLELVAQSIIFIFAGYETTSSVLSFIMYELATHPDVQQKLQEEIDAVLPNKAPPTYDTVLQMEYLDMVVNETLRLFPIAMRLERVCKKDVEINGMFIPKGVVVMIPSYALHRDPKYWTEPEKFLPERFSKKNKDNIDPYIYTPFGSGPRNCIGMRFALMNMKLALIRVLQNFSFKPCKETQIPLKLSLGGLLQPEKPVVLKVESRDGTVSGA
Sequence of Cytochrome P450 2C19 (P33261 whole entry): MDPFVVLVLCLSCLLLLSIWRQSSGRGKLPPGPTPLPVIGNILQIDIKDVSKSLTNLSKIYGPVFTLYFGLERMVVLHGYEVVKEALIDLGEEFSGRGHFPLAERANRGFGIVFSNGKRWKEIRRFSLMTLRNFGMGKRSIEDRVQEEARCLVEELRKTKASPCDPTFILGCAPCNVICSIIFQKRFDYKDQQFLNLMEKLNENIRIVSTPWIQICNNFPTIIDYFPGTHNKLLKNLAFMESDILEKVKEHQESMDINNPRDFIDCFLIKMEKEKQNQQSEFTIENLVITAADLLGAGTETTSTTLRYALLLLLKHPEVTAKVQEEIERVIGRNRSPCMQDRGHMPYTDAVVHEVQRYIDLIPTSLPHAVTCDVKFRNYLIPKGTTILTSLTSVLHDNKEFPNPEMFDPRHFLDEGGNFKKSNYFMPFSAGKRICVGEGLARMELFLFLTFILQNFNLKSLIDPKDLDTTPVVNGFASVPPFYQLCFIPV
Sequence of Cytochrome P450 2C9 (P11712 whole entry): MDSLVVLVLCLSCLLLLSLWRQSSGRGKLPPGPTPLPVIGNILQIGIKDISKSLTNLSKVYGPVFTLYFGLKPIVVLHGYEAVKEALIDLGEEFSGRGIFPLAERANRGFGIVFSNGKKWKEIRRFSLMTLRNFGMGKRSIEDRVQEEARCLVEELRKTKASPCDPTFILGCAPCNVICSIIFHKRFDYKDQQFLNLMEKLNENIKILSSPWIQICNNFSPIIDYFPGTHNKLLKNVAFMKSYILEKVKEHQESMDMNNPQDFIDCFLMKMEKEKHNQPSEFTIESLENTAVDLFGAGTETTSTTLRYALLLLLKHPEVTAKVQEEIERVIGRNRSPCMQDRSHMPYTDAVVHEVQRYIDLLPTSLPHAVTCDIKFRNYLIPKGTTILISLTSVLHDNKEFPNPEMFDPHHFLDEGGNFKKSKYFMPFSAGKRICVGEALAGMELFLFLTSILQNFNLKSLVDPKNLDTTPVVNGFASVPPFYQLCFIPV
Sequence of Cytochrome P450 2D6 (P10635 whole entry): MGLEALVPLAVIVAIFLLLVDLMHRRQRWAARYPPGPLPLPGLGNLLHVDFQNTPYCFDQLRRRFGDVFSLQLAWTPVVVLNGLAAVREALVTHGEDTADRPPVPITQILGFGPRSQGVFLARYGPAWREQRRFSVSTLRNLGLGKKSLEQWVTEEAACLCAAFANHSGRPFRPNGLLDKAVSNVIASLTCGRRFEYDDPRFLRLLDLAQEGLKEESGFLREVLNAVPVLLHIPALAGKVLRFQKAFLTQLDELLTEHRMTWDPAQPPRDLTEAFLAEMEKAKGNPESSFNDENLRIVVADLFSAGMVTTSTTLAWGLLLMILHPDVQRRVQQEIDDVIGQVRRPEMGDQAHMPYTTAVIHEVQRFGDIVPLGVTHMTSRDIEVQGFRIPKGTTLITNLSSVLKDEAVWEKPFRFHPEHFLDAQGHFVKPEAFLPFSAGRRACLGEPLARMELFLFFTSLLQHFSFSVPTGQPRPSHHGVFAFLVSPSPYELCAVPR

SMILES: C[C@@H](COCCC(=O)N1CCN(c2ncc(C(F)(F)F)cn2)CC1)Nc1cn[nH]c(=O)c1C(F)(F)F [ATAMPARIB]
- solubility thermodynamic [1]: 52.8 µg/mL (≈ 101 µM)
- inhibition in vivo at 30 mg/kg (NCI-H1373): 62.7%
- Papp A→B at 2 h [2]: 0.28 ×10⁻⁶ cm/s
- IC50 (Cytochrome P450 2D6): > 30 µM
- fraction unbound at 1 h, 2 µM [3]: 0.123
- AUC [4]: 4694 ng·h/mL
- Tmax [5]: 1.33 h
- AUC at 24 h [6]: 470 ng·h/mL
- Papp B→A at 2 h [7]: 3.78 ×10⁻⁶ cm/s
- IC50 (Cytochrome P450 2C19): > 30 µM
- AUC [8]: 5508 ng·h/mL
- half-life [9]: 0.2 h
- solubility kinetic [10]: 151 µM (≈ 79 µg/mL)
- AUC [11]: 617 ng·h/mL
- clearance [12]: 72.6 mL/min/kg
- bioavailability [13]: 26.2%
- solubility thermodynamic [14]: 54.6 µg/mL (≈ 104 µM)
- Activity [15]: Non-Toxic
- solubility kinetic [16]: 158 µM (≈ 82.7 µg/mL)
- CLint scaled [17]: 23.2 mL/min/kg
- solubility thermodynamic [18]: 68.9 µg/mL (≈ 132 µM)
- IC50 (Cytochrome P450 3A4): > 30 µM
- CLint scaled [19]: 110 mL/min/kg
- IC50 (Cytochrome P450 1A2): > 30 µM
- Cmax [20]: 1800 ng/mL
- fraction unbound at 1 h, 2 µM [21]: 0.194
- bioavailability [22]: 23.4%
- CLint scaled [23]: 17.1 mL/min/kg
- fraction unbound at 1 h, 2 µM [24]: 0.131
- solubility kinetic [25]: 158 µM (≈ 82.7 µg/mL)
- half-life [26]: 1 h
- t1/2 [27]: 2.7 h
- Vd [28]: 1.7 L/kg
- CLint scaled [29]: 94.8 mL/min/kg
- Papp at 2 h [30]: 1.03 ×10⁻⁶ cm/s
- t1/2 [31]: 2.5 h
- IC50 (Cytochrome P450 2C9): 3.13 µM
- CLint scaled [32]: 345 mL/min/kg
- Activity [33]: Non-Toxic
- fraction unbound at 1 h, 2 µM [34]: 0.347
- Vd [35]: 0.714 L/kg
- Cmax [36]: 995 ng/mL
- Tmax [37]: 0.25 h
- fraction unbound at 1 h, 2 µM [38]: 0.233
